{"source": "paper PMC2650736", "about": "(Drug metabolism and disposition: the biological fate of …, 2008)", "key": {"[1]": {"assay_type": "in vivo, human", "details": "for Cmax: read-out: Cmax, Geometric Mean (CV %)"}, "[2]": {"experiment": "Midazolam absorptive permeability in Caco-2 cell monolayers", "assay_type": "in vitro ADME, human", "details": "human, apical to basolateral, midazolam 3 μM"}, "Caco-2 cell monolayers": {"tested_on": "Caco-2 cell monolayers", "experiment": "Midazolam absorptive permeability in Caco-2 cell monolayers", "assay_type": "in vitro ADME, human"}, "[3]": {"details": "CBJ, single oral 5 mg midazolam"}, "[4]": {"details": "water, single oral 5 mg midazolam"}}, "note": "Like-named read-outs stand apart in the source and are kept apart here."}
{"smiles": "OCc1ncc2n1-c1ccc(Cl)cc1C(c1ccccc1F)=NC2", "note": "[1'-Hydroxymidazolam, 1'-hydroxymidazolam]", "values": [{"measurement": "tmax [median (range)]", "setting": "[1]; CBJ (3 × 240 ml sweetened double-strength juice E), single oral 5 mg midazolam", "result": "2.0 (1.0−6.0) h"}, {"measurement": "AUC0-∞, Geometric Mean (CV %)", "setting": "[1]; [3]", "result": "62 (25) nM●h"}, {"measurement": "AUClast, Geometric Mean (CV %)", "setting": "[1]; [3]", "result": "55 (23) nM●h"}, {"measurement": "t1/2 (terminal half-life), Geometric Mean (CV %)", "setting": "[1]; [3]", "result": "3.3 (19) h"}, {"measurement": "Cmax", "setting": "[1]; [3]", "result": 10, "unit": "nM"}, {"measurement": "Cmax", "setting": "[1]; [4]", "result": 33, "unit": "nM"}, {"measurement": "AUC0-∞, CBJ / Water Ratio [90% CI]", "setting": "[1]; single oral 5 mg midazolam", "result": "0.84 [0.77−0.92]"}, {"measurement": "AUClast, CBJ / Water Ratio [90% CI]", "setting": "[1]; single oral 5 mg midazolam", "result": "0.80 [0.73−0.88]"}, {"measurement": "Cmax, CBJ / Water Ratio [90% CI]", "setting": "[1]; single oral 5 mg midazolam", "result": "0.32 [0.27−0.38]"}, {"measurement": "t1/2, CBJ / Water Ratio [90% CI]", "setting": "[1]; single oral 5 mg midazolam", "result": "1.04 [0.89−1.20]"}, {"measurement": "AUC0-∞, Geometric Mean (CV %)", "setting": "[1]; [4]", "result": "74 (37) nM●h"}, {"measurement": "AUClast, Geometric Mean (CV %)", "setting": "[1]; [4]", "result": "69 (35) nM●h"}, {"measurement": "t1/2 (terminal half-life), Geometric Mean (CV %)", "setting": "[1]; [4]", "result": "3.2 (35) h"}, {"measurement": "tmax [median (range)]", "setting": "[1]; water, single oral 5 mg midazolam, 16 healthy volunteers", "result": "0.5 (0.25−1.5) h"}]}
{"smiles": "Cc1ncc2n1-c1ccc(Cl)cc1C(c1ccccc1F)=NC2", "note": "[midazolam]", "values": [{"measurement": "Papp A→B at 3 μM", "setting": "[2]; Caco-2, Papp, acidic pH (5.5)", "result": "21.9 ± 3.3", "unit": "×10⁻⁶ cm/s"}, {"measurement": "Papp A→B at 3 μM", "setting": "[2]; Caco-2, pH 7.4, Papp, control (plain incubation medium, pH 7.4)", "result": "19.4 ± 1.8", "unit": "×10⁻⁶ cm/s"}, {"measurement": "Papp A→B at 3 μM", "setting": "[2]; Caco-2, pH 7.4, Papp, high glucose (50 g/L, pH 7.4)", "result": "18.9 ± 2.8", "unit": "×10⁻⁶ cm/s"}, {"measurement": "total amount of midazolam recovered from apical and basolateral chambers", "setting": "Caco-2 cell monolayers; all time points, all conditions", "result": "≥ 80 % of the initial amount added to the apical chamber"}, {"measurement": "amount of midazolam recovered from cell scrapings", "setting": "Caco-2 cell monolayers; end of 4-hour experiment, all four conditions", "result": "7−9 % of the initial amount added to the apical chamber"}, {"measurement": "CI/F, Geometric Mean (CV %)", "setting": "[1]; [3]", "result": "54 (30) L/h"}, {"measurement": "t1/2 (terminal half-life), Geometric Mean (CV %)", "setting": "[1]; [3]", "result": "2.9 (25) h"}, {"measurement": "half-life", "setting": "[1]; human, plasma, po, 5 mg", "result": 2.9, "unit": "h"}, {"measurement": "AUC0-∞, CBJ / Water Ratio [90% CI]", "setting": "[1]; single oral 5 mg midazolam", "result": "1.33 [1.17−1.50]"}, {"measurement": "AUClast, CBJ / Water Ratio [90% CI]", "setting": "[1]; single oral 5 mg midazolam", "result": "1.31 [1.18−1.46]"}, {"measurement": "CI/F, CBJ / Water Ratio [90% CI]", "setting": "[1]; single oral 5 mg midazolam", "result": "0.75 [0.67−0.85]"}, {"measurement": "Cmax, CBJ / Water Ratio [90% CI]", "setting": "[1]; single oral 5 mg midazolam", "result": "0.56 [0.49−0.64]"}, {"measurement": "t1/2, CBJ / Water Ratio [90% CI]", "setting": "[1]; single oral 5 mg midazolam", "result": "1.01 [0.86−1.19]"}, {"measurement": "CI/F, Geometric Mean (CV %)", "setting": "[1]; [4]", "result": "71 (33) L/h"}]}
